How the values were obtained:
human V1a receptor [1] = target: T1, human V1a receptor (Homo sapiens, UniProt P37288); experiment: Inhibition of phosphatidylinositol turnover (V1a); format: cell-based; details: hV1a cells
T1 construct: host or cells: CHO cells
Excerpt: EXAMPLE. Inhibition of phosphatidylinositol turnover (V1a). The physiological effects of vasopressin are mediated through specific G-protein coupled receptors. The V1aR is coupled to the Gq/G11 family of G proteins and mediates phosphatidylinositol turnover. The agonist or antagonist character of the compounds of the invention may be determined by their ability to inhibit vasopressin-mediated turnover of phosphatidylinositol by the procedure described in the following paragraphs.
Cell culture and labeling of cells. Three days prior to the assay, near-confluent cultures of hV1a or hV1b cells were dissociated and seeded in 6-well tissue culture plates, about 100 wells being seeded from each 75 cm^2 flask (equivalent to 12:1 split ratio). Each well contained 1 mL of growth medium with 2 μCi of [^3H]myo-inositol (American Radiolabeled Chemicals, St. Louis, Mo., USA).
Incubations (V1a and V1b). All assays were in triplicate except for basal and 10 nM AVP (both n=6). AVP ((arginine vasopressin), Peninsula Labs, Belmont, Calif., USA (#8103)) was dissolved in 0.1N acetic acid. Test agents were dissolved in DMSO and diluted in DMSO to 200 times the final test concentration. […] The order of incubations was randomized. Incubations were initiated by removing the prelabeling medium, washing the monolayer once with 1 mL of 0.9% NaCl, and transferring the contents of the assay tubes to corresponding wells. The plates were incubated for 1 hour at 37° C. Incubations were terminated by removing the incubation medium and adding 500 μL of ice cold 5% (w/v) trichloroacetic acid and allowing the wells to stand for 15 min.
Measurement of [^3H]inositol phosphates (V1a and V1b). BioRad Poly-Prep Econo-Columns were packed with 0.3 mL of AG 1 X-8 100-200 formate form resin. Resin was mixed 1:1 with water and 0.6 mL added to each column. Columns were then washed with 10 mL water. Scintillation vials (20 mL) were placed under each column. For each well, the contents were transferred to a minicolumn, after which the well was washed with 0.5 mL distilled water, which was also added to the minicolumn. The columns were then washed twice with 5 mL of 5 mM myo-inositol to elute free inositol. Aliquots (1 mL) were transferred to 20 mL scintillation vials and 10 mL of Beckman Ready Protein Plus added. After the myo-inositol wash was complete, empty scintillation vials were placed under the columns, and [^3H]inositol phosphates were eluted with three additions of 1 mL 0.5 M ammonium formate containing 0.1 N formic acid. […] Inositol lipids were measured by adding 1 mL of 2% sodium dodecyl sulfate (SDS) to each well, allowing the wells to stand for at least 30 min., and transferring the solution to 20 mL scintillation vials, to which 10 mL Beckman Ready Protein Plus scintillation fluid was then added. Samples were counted in a Beckman LS 3801 liquid scintillation counter for 10 min. Total inositol incorporation for each well was calculated as the sum of free inositol, inositol phosphates, and inositol lipids.
Data analysis (V1a and V1b): concentration-inhibition experiments. Concentration-response curves for AVP and concentration-inhibition curves for test agents versus 10 nM AVP were analyzed by nonlinear least-squares curve-fitting to a 4-parameter logistic function. […] The curve-fitting was weighted under the assumption that the standard deviation was proportional to dpm of radioactivity. […]

V2 = V2 (Homo sapiens, UniProt P30518); experiment: V2 receptor inhibition data (Ki); format: binding; details: selectivity table
Sequence of V2 (P30518 whole entry): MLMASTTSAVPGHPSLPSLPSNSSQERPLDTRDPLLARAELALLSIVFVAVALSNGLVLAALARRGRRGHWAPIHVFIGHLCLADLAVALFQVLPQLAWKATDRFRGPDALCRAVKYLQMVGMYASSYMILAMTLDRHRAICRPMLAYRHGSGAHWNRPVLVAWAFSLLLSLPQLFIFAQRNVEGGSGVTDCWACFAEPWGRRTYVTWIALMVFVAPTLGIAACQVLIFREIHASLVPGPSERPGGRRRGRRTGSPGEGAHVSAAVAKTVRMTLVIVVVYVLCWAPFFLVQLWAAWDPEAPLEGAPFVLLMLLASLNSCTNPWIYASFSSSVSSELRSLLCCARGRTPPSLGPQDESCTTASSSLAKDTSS

human V1a receptor [2] = target: T1, human V1a receptor; experiment: Human vasopressin V1a receptor binding assay; details: hV1a cell line, [3H]-AVP
Method: EXAMPLE. Human vasopressin V1a receptor binding assay. A cell line expressing the human V1a receptor in CHO cells (henceforth referred to as the hV1a cell line) was obtained from Dr. Michael Brownstein, NIMH, Bethesda, Md., USA. The hV1a cDNA sequence is described by Thibonnier et al., Journal of Biological Chemistry, 269, 3304-3310 (1994), and the expression method was the same as described by Morel et al. (1992). The hV1a cell line was grown in alpha-MEM with 10% fetal bovine serum and 250 ug/ml G418 (Gibco, Grand Island, N.Y., USA). For competitive binding assay, hV1a cells were plated into 6-well culture plate at 1:10 dilution from a confluency flask, and maintained in culture for at least two days. Culture medium was then removed, cells were washed with 2 ml binding buffer (25 mM Hepes, 0.25% BSA, 1×DMEM, PH=7.0). To each well, 990 μl binding buffer containing 1 nM 3H-AVP was added, and followed by 10 μl series diluted Example compounds dissolved in DMSO. […] 100 nM cold AVP (Sigma) was used to assess non-specific binding. Cells were incubated for 45 minutes at 37° C., assay mixture was removed and each well was washed three times with PBS (pH=7.4). 1 ml 2% SDS was added per well and plates were let sit for 30 minutes. The whole content in a well was transferred to a scintillation vial. Each well was rinsed with 0.5 ml PBS which was then added to the corresponding vial. Scintillation fluid (Ecoscint, National Diagnostics, Atlanta, Ga.) was then added at 3 ml per vial. Samples were counted in a liquid scintillation counter (Beckman LS3801). IC50 values were calculated by Prism Curve fitting software.
All of the alkanedioic esters and amides exemplified in the foregoing examples dissolved in DMSO were tested in this assay. Binding curves were generated according to methods described by Thibonnier et al. (1994). [^3H]-AVP was added to the hV1a cell cultures followed by 10-fold dilutions of each test compound.

V1b receptor = target: T2, V1b receptor (Homo sapiens, UniProt P47901); experiment: Human or rat vasopressin V1b cell-based receptor binding assay; details: selectivity table; read-out: inhibition data Ki, V1b
T2 construct: expressed in transfected cells; host or cells: CHO-K1 (ATCC), vector PCI-neo
T2 sequence (P47901 1-424): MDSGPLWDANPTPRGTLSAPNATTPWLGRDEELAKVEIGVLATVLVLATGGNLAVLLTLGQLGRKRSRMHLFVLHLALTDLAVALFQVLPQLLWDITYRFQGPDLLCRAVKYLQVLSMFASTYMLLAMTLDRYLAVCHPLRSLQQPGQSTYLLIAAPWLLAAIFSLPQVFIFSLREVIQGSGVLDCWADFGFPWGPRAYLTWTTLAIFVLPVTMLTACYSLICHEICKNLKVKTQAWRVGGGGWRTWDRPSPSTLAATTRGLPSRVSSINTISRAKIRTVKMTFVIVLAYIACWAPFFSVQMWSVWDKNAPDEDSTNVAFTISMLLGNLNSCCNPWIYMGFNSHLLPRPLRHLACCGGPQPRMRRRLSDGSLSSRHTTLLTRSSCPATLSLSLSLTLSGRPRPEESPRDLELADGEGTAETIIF
Excerpt: EXAMPLE. Human vasopressin V1b receptor-expressing cells. Human vasopressin receptor 1b (hV1b) cDNA (see, Lolait et al., “Extrapituitary expression of the rat V1b vasopressin receptor gene” Proc. Natl. Acad. Sci. USA. 92:6783-7 (1995); de Keyzer et al., “Cloning and characterization of the human V3(V1b) pituitary vasopressin receptor” FEBS Lett. 356:215-20 (1994); Sugimoto et al., “Molecular cloning and functional expression of a cDNA encoding the human V1b vasopressin receptor” J. Biol. Chem. 269:27088-92 (1994)) was inserted into a mammalian cell expression vector PCI-neo (Promega) at EcoR1 site. The recombinant plasmid carrying hV1b cDNA was identified from transformed E. Coli clones and used for the transfection of Chinese hamster ovary cell (CHO-K1, ATCC). Two micrograms of hV1b receptor DNA was introduced into 10^5 CHO cells cultured in 6-well plate, using Fugene-6 mediated transfection technique (Boehringer Mannheim). Twenty-four hrs post transfection, Cells were then cultured under selection of G-418 (0.25 mg/ml) supplemented to the culture medium. Three days later, limited dilution was carried out to obtain single cell clones in 96-well plates. […]
EXAMPLE. […] Samples were counted in a liquid scintillation counter (Beckman LS3801). IC50 and Ki values were calculated using Prism Curve fitting software. […]

Pharmacokinetics = format: in vivo; details: b.i.d. dosing
Excerpt: EXAMPLE. Pharmacokinetics. Compounds described herein are rapidly absorbed after oral administration. Compounds described herein cross the blood-brain-barrier and achieve therapeutically effective concentrations in the CNS. Compounds described herein may be dosed according to a wide variety of protocols, including but not limited to q.d., b.i.d., and the like.

T1 sequence (P37288 whole entry): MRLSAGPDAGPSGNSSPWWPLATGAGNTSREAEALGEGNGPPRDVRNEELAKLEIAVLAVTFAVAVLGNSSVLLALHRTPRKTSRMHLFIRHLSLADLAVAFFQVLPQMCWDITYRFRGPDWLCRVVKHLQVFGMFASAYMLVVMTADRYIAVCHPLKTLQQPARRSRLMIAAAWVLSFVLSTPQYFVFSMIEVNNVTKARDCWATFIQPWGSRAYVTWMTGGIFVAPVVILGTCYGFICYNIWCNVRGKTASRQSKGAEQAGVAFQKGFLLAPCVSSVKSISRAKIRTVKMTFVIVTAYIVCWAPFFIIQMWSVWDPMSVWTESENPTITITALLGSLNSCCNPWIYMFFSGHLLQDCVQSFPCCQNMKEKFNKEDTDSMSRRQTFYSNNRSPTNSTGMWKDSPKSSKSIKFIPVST

**Q.** Which “agonist or antagonist character (inhibition of vasopressin-mediated phosphatidylinositol turnover)” value (human V1a receptor [1]) does the source give for `O=C(NCc1cccc(C(F)(F)F)c1)C(CC(=O)N1CCC(N2CCCCC2)CC1)N1C(=O)C(N2C(=O)OCC2c2ccccc2)C1C=Cc1ccccc1` (stereo not shown) [Example 133] here?
**A.** vasopressin V1a antagonists

**Q.** With `O=C(NCc1cccc(C(F)(F)F)c1)C(CC(=O)N1CCC(N2CCCCC2)CC1)N1C(=O)C(N2C(=O)OCC2c2ccccc2)C1C=Cc1ccccc1` (stereo not shown) [Example 44] as the compound, how does the “agonist or antagonist character (inhibition of vasopressin-mediated phosphatidylinositol turnover)” value (human V1a receptor [1]) read?
**A.** vasopressin V1a antagonists

**Q.** With `CN(Cc1cccc(C(F)(F)F)c1)C(=O)[C@@H](CC(=O)N1CCC(N2CCCCC2)CC1)N1C(=O)[C@@H](N2C(=O)OC[C@@H]2c2ccccc2)[C@H]1/C=C/c1ccccc1` [Example 225, 2(R)-[[4-(Piperidinyl)piperidinyl]carbonylmethyl]-2-[3(S)-(4(S)-phenyloxazolidin-2-on-3-yl)-4(R)-(2-styryl)azetidin-2-on-1-yl]acetic acid N-methyl-N-(3-trifluoromethylbenzyl)amide] as the compound, how does the Ki (V2) read?
**A.** > 1 µM

**Q.** And the IC50 (human V1a receptor [2])?
**A.** 0.00186 to 0.00213 µM

**Q.** And the Ki (human V1a receptor [2])?
**A.** 0.00114 to 0.0013 µM

**Q.** And the Ki (V1b receptor)?
**A.** > 1 µM

**Q.** With `O=C(NCc1cccc(C(F)(F)F)c1)C(CCC(=O)N1CCN(C2CCCCC2)CC1)N1C(=O)C(N2C(=O)OCC2c2ccccc2)C1C=Cc1ccccc1` (single isomer, unassigned) [Example 110] as the compound, how does the “agonist or antagonist character (inhibition of vasopressin-mediated phosphatidylinositol turnover)” value (human V1a receptor [1]) read?
**A.** vasopressin V1a antagonists

**Q.** For `C[C@@H](NC(=O)[C@@H](CC(=O)N1CCC(N2CCCCC2)CC1)N1C(=O)[C@@H](N2C(=O)OC[C@@H]2c2ccccc2)[C@H]1/C=C/c1ccccc1)c1ccccc1` [Example 224, 2(R)-[[4-(Piperidinyl)piperidinyl]carbonylmethyl]-2-[3(S)-(4(S)-phenyloxazolidin-2-on-3-yl)-4(R)-(2-styryl)azetidin-2-on-1-yl]acetic acid N—[(R)-α-methylbenzyl]amide], which Ki (V2) is on record?
**A.** > 1 µM

**Q.** What about the T1/2 (Pharmacokinetics) of the same compound?
**A.** improved

**Q.** And the accumulation (Pharmacokinetics)?
**A.** 1.7 fold

**Q.** And the Ki (V1b receptor)?
**A.** > 1 µM

**Q.** Which “agonist or antagonist character (inhibition of vasopressin-mediated phosphatidylinositol turnover)” value (human V1a receptor [1]) does the source give for `O=C(NCc1cccc(C(F)(F)F)c1)[C@H](CCC(=O)N1CCN(CCc2ccccc2)CC1)N1C(=O)[C@@H](N2C(=O)OC[C@@H]2c2ccccc2)[C@H]1C=Cc1ccccc1` (single isomer, unassigned) [Example 35] here?
**A.** vasopressin V1a antagonists

**Q.** For `O=C(NCc1cccc(C(F)(F)F)c1)C(CCC(=O)N1CCC(N2CCCCC2)CC1)N1C(=O)C(N2C(=O)OCC2c2ccccc2)C1C=Cc1ccccc1` (stereo not shown) [Example 88], which “agonist or antagonist character (inhibition of vasopressin-mediated phosphatidylinositol turnover)” value (human V1a receptor [1]) is on record?
**A.** vasopressin V1a antagonists

— US11628160B2, “Compositions and methods for treating brain injury” (Azevan Pharmaceuticals, Inc., priority 2017, dated 2023)
